These are literature values, as cited in US10973866B2, “Compositions and methods for treating, inhibiting the onset, and slowing the progression of erectile dysfunction including naturally occurring age related erectile dysfunction” (K.L.R.M., LLC, priority 2010, dated 2021).

The conditions of data set [1]: human, in vivo.
The subject of another data set is erectile function. The following applies: men in their 30's with normal erectile function.

Structures are written as SMILES.

As for `NC(=O)NCCC[C@H](N)C(=O)O` [L-citrulline], the side effects entry in data set [1] is on record as “no known side effects”.
`CCCc1nn(C)c2c(=O)[nH]c(-c3cc(S(=O)(=O)N4CCN(C)CC4)ccc3OCC)nc12` [Viagra]: in the data set with erectile function, the “erectile function as measured by the IIEF” value is given as “increased erectile function” and the refractory period entry was “decrease in the refractory period”.
